ChEMBL document CHEMBL1133460, “Synthesis and biological evaluation of certain alpha,beta-unsaturated ketones and their corresponding fused pyridines as antiviral and cytotoxic agents” (J Med Chem, 2000)
In brackets after ≈: the same amount, converted by molar mass. Several values for one entry are separate records, joined by “and”; a condition that tells them apart may be missing. Equal values may be shown once.

Key:
Human alphaherpesvirus 1 [1] = experiment: Concentration which caused 50% loss of the monolayer present around the viral plaques in ug/mL.; type: functional, organism-based
Human alphaherpesvirus 1 [2] = experiment: Minimum antiviral concentration proved to be lethal to viral population in uM; type: functional
Human alphaherpesvirus 1 [3] = experiment: Minimum antiviral concentration proved to be lethal to viral population in ug/mL.; type: functional
Human alphaherpesvirus 1 [4] = experiment: Concentration which caused 50% loss of the monolayer present around the viral plaques in uM; type: functional, organism-based
Human alphaherpesvirus 1 [5] = experiment: In vitro antiviral activity against Herpes Simplex-1 virus (HSV-1) expressed as percent reduction in the number of viral plaques; type: functional; parameters: concentration or dose not given beside the values
[6] = In vitro growth inhibitory concentration against colon cancer tumor cell lines; type: functional; settings: Homo sapiens
Ovarian cancer cell line [7] = experiment: In vitro growth inhibitory concentration against ovarian cancer cell lines; type: functional; settings: Homo sapiens
[8] = test system: Panel renal (Carcinoma cell lines); experiment: In vitro median growth inhibitory concentration against renal cancer cell lines; type: functional; settings: Homo sapiens
[9] = test system: Panel melanoma (Carcinoma cell lines); experiment: In vitro median growth inhibitory concentration against melanoma cell lines; type: functional; settings: Homo sapiens
[10] = test system: Human immunodeficiency virus 1; experiment: In vitro effective concentration against HIV-1 cytopathic effect in T4 cells; Inactive; type: functional, organism-based
[11] = test system: Panel CNS (Carcinoma cell lines); experiment: In vitro median growth inhibitory concentration against CNS cancer cell lines; type: functional; settings: Homo sapiens
[12] = test system: Panel melanoma (Carcinoma cell lines); experiment: In vitro growth inhibitory concentration against melanoma cancer cell lines; type: functional; settings: Homo sapiens
[13] = test system: Panel prostate (Carcinoma cell lines); experiment: In vitro growth inhibitory concentration against prostate cancer cell lines; type: functional; settings: Homo sapiens
[14] = test system: Panel CNS (Carcinoma cell lines); experiment: In vitro growth inhibitory concentration against CNS cancer cell lines; type: functional; settings: Homo sapiens
[15] = Full panel mean-graph midpoint (MG-MID)
[16] = test system: Panel leukemia (Carcinoma cell lines); experiment: In vitro growth inhibitory concentration against leukemia tumor cell lines; type: functional; settings: Homo sapiens
Ovarian cancer cell line [17] = experiment: In vitro median growth inhibitory concentration against ovarian cancer cell lines; type: functional; settings: Homo sapiens
Breast cancer cell line [18] = experiment: In vitro growth inhibitory concentration against breast cancer cell lines; type: functional; settings: Homo sapiens
[19] = test system: Panel renal (Carcinoma cell lines); experiment: In vitro growth inhibitory concentration against renal cancer cell lines; type: functional; settings: Homo sapiens
MT4 = experiment: In vitro inhibitory activity against uninfected T4 cells; type: functional, cell-based; settings: Homo sapiens
Homo sapiens = organism: Homo sapiens; experiment: Selectivity ratio between the full panel MG-MID and leukemia subpanel MG-MID was determined.; type: functional
[20] = In vitro median growth inhibitory concentration against colon cancer cell lines; type: functional; settings: Homo sapiens
Breast cancer cell line [21] = experiment: In vitro median growth inhibitory concentration against breast cancer cell lines; type: functional; settings: Homo sapiens
NSCLC [22] = experiment: In vitro growth inhibitory concentration against non-small-cell lung cancer; type: functional; settings: Homo sapiens
[23] = test system: Panel prostate (Carcinoma cell lines); experiment: In vitro median growth inhibitory concentration against prostate cancer cell lines; type: functional; settings: Homo sapiens
NSCLC [24] = experiment: In vitro median growth inhibitory concentration against non-small-cell lung cancer; type: functional; settings: Homo sapiens
[25] = test system: Panel leukemia (Carcinoma cell lines); experiment: In vitro median growth inhibitory conc. against leukemia was estimated.; type: functional; settings: Homo sapiens

SMILES	IC50 (Human alphaherpesvirus 1 [1]) [µg/mL]	MAC (Human alphaherpesvirus 1 [2]) [µM]	MAC (Human alphaherpesvirus 1 [3]) [µg/mL]	IC50 (Human alphaherpesvirus 1 [4]) [µM]	Reduction (Human alphaherpesvirus 1 [5]) [%]	TGI [6] [µM]	TGI (Ovarian cancer cell line [7]) [µM]	GI50 [8] [µM]	GI50 [9] [µM]	EC50 [10]	GI50 [11] [µM]	MG-MID [15]	GI50 (Ovarian cancer cell line [17]) [µM]	IC50 (MT4) [µM]	Ratio (Homo sapiens)	GI50 [20] [µM]	GI50 (Breast cancer cell line [21]) [µM]	GI50 [23] [µM]	GI50 (NSCLC [24]) [µM]	GI50 [25] [µM]	other results
CN1C/C(=C\c2ccc(Cl)cc2)C(=O)/C(=C/c2ccc(Cl)cc2)C1	0.2 (≈ 0.558 µM)	0.07	0.02	0.69	93																
CN1C/C(=C\c2cccs2)C2=NN(C)C(c3cccs3)C2C1 (stereo not drawn)						> 100	> 100	89.7	85	Not Active	80.7	68 µM and 97.7 µM	74.4	> 200	2.1	79.2	86	59.5	86.4	31.8	TGI [12]: 97.7 µM; TGI [13]: > 100 µM; TGI [14]: > 100 µM; TGI [16]: 87.8 µM; TGI (Breast cancer cell line [18]): > 100 µM; TGI [19]: > 100 µM; TGI (NSCLC [22]): > 100 µM
COc1ccc(/C=C2\CN(C)Cc3c2nc(O)c(C#N)c3-c2ccc(OC)cc2)cc1						> 100	> 100	61.2	79.9	Not Active	44.9	52.5 µM and 95.8 µM	51.8	104	1.5	60.5	66.9	70.9	66.6	35	TGI [12]: > 100 µM; TGI [13]: > 100 µM; TGI [14]: > 100 µM; TGI [16]: 80.7 µM; TGI (Breast cancer cell line [18]): > 100 µM; TGI [19]: 87.8 µM; TGI (NSCLC [22]): > 100 µM
CN1C/C(=C\c2cccs2)C(O)/C(=C/c2cccs2)C1 (stereo not drawn)						> 100	> 100	96.2	92.5	Not Active	> 100	77.1 µM and 97.7 µM	81.4	126	2.4	85.8	84.3	> 100	83.9	32.5	TGI [12]: > 100 µM; TGI [13]: > 100 µM; TGI [14]: > 100 µM; TGI [16]: 78.1 µM; TGI (Breast cancer cell line [18]): 96.8 µM; TGI [19]: > 100 µM; TGI (NSCLC [22]): > 100 µM
C[C@@]1(CO)[C@H](O)CC[C@@]2(C)[C@H]1CC[C@H]1C[C@@H]3C[C@@]12CC[C@]3(O)CO [APHIDICOLIN]	0.2 (≈ 0.591 µM)	0.02	0.005	0.59	100																
Cc1ccc(/C=C2\CN(C)CC3C2=NN(c2ccccc2)C3c2ccc(C)cc2)cc1 (stereo not drawn)								83.7	77.9	Not Active	77	81 µM	92.8	> 200	2.2	> 100	> 100	69.5	97.4	37.4	
COc1ccc(/C=C2\CN(C)C/C(=C\c3ccc(OC)cc3)C2O)cc1	0.04 (≈ 0.114 µM)	0.06	0.02	0.12	58																
Cc1ccc(/C=C2\CN(C)Cc3c2nc(O)c(C#N)c3-c2ccc(C)cc2)cc1										Not Active				> 200							
Cc1ccc(/C=C2\CN(C)C/C(=C\c3ccc(C)cc3)C2O)cc1	0.2 (≈ 0.626 µM)	0.06	0.02	0.63	82																
CN1C/C(=C\c2cccs2)c2nc(O)c(C#N)c(-c3cccs3)c2C1										Not Active				> 200							
